The structures appear in SMILES notation. Entries after “also recorded” stand apart in the source; their conditions may differ. Where two headings read alike, the source gives them in different places.

For data set [1] the following is noted: after metabolism by peripheral AADC and COMT; cited from earlier work.
Another data set in a line: clinical. The settings on record: male, human, in vivo, po, 100 mg.
The conditions of data set [2]: period 1, before opicapone.
A short description of data set [3]: Effect of opicapone on plasma L‐dopa and 3‐OMD exposure. It is filed as in vivo, healthy Japanese adult males.
A short description of the next data set: Safety and tolerability. It is filed as in vivo, healthy Japanese adult males. The settings on record: for Tolerability: opicapone tablets 5 to 50 mg once daily for 11 days.
The conditions of data set [4]: previous pharmacokinetic study; cited from earlier work.
The mark [5] stands for this setting: opicapone 50 mg, period 2, N 20.
The mark [6] stands for this setting: opicapone 50 mg, period 3, N 19.

Take `N[C@@H](Cc1ccc(O)c(O)c1)C(=O)O` [L‐dopa, levodopa]: the “Bioavailable dose in the brain” value in data set [1] was “approximately 1 % of the ingested dose”. Further, in the data set “clinical”, the Cmax was found to be 1950 ± 581 ng/mL. Further, in “clinical”, the Tmax was found to be 30 min. Moreover, the “tmax in plasma (median (min-max))” value in data set [2] (opicapone 5 mg cohort (A), first dose of L-dopa/carbidopa) is reported as 0.50 (0.50‐2.00) h; in data set [2] (opicapone 10 mg cohort (B), second dose of L-dopa/carbidopa), 0.50 (0.50‐2.00) h; in data set [2] (opicapone 50 mg cohort (D), first dose of L-dopa/carbidopa) it was 0.50 (0.50‐2.00) h.

Turning to `Cc1c(Cl)c(C)[n+]([O-])c(Cl)c1-c1noc(-c2cc(O)c(O)c([N+](=O)[O-])c2)n1` [Opicapone, opicapone], in data set [3] (especially at the highest opicapone doses), the “Change of Cmax and AUC of 3‐OMD following opicapone administration” value is “decreased notably”. In data set [3] (opicapone 5-50 mg, plateau at 25 mg and higher), the “Change of AUC of L‐dopa with increasing opicapone dose” value is given as “increased with increasing opicapone dose; also recorded: tended to increase with increasing opicapone dose; also recorded: plateau in the increase in L‐dopa exposure”. In addition, in “Safety and tolerability” (opicapone 5 mg, period 3, N 20), the “Number (%) of Subjects Reporting Adverse Event: Diarrhea” value is 1 (5.0) Number (%) of Subjects. For the same molecule, the “Number (%) of Subjects Reporting Adverse Event: Nausea” value is listed as 3 (15.0) Number (%) of Subjects in the data set “Safety and tolerability” (opicapone 25 mg, period 3, N 20); 5 (26.3) Number (%) of Subjects in “Safety and tolerability” (setting [6]). Also, the “Subjects who stopped treatment due to adverse event (infectious enteritis)” value in “Safety and tolerability” (opicapone 50 mg cohort) was 1 subject. Besides, the “Number (%) of Subjects Reporting Adverse Event: All” value in the data set “Safety and tolerability” (opicapone 50 mg, period 2 (opicapone once daily 11 days), N 20) is 2 (10.0) Number (%) of Subjects. Further, the “Number (%) of Subjects Reporting Adverse Event: Enteritis, infectious” value in the data set “Safety and tolerability” (setting [5]) is recorded as 1 (5.0) Number (%) of Subjects. Also, the “Number (%) of Subjects Reporting Adverse Event: Pharyngitis” value in “Safety and tolerability” (setting [5]) is recorded as 1 (5.0) Number (%) of Subjects. Besides, in the data set “Safety and tolerability” (setting [6]), the “Number (%) of Subjects Reporting Adverse Event: Vomiting” value is 3 (15.8) Number (%) of Subjects. Further, the Tolerability entry in the data set “Safety and tolerability” is given as “well tolerated; also recorded: well tolerated with no safety issues”; in “Safety and tolerability” (listed as opicapone), “well tolerated at all doses with no major safety issues”. Besides, the “Causal relationship of adverse events to opicapone or L‐dopa/carbidopa” value in “Safety and tolerability” (period 2) is given as “no adverse events reported in period 2 were thought to be related”; in the data set “Safety and tolerability” (period 3) it was “at least possibly related”. In addition, the “Increase of L‐dopa trough levels and extent of exposure compared with entacapone” value in data set [4] is “superior response to entacopone”.

What is called Cmax is the highest concentration seen after dosing. In general, Tmax refers to the time at which the peak concentration occurs.
